US4261910A, “Process for the preparation of Chlorambucil derivatives” (Kureha Kagaku Kogyo Kabushiki Kaisha, priority 1978, dated 1981)
Like-named read-outs stand apart in the source and are kept apart here.

Experiments:
Acute toxicity (LD50) = test: Acute toxicity (LD50); design: species or system mice (ICR-JCL); conditions: mouse, in vivo; for LD50: Test 2, route and unit inferred; for LD50 at 168 h: mice
Experimental: In the measurement of LD50, eight ICR-JCL female mice (5 week age) were used as one group to breed in a transparent polycage, and each drug was dissolved in olive oil and administrated by routes of intraperitoneal injection (i.p.), oral administration (p.o.) and subcutaneous injection (s.c.), to the mice at one dose, and then, their value of LD50 by Litchfield-Wilcoxon graph method is obtained after 7 days. LD50 of Chlorambucil was i.p. 20 mg./kg., p.o. 80 mg./kg., and s.c. 26 mg./kg., LD50 of the sample No. 2 in Table 1 of the present invention was i.p. greater than 3000 mg./kg., p.o. greater than 6000 mg./kg. and s.c. greater than 3000 mg./kg.. […]

estrogen receptor = test: Test 3: binding function to estrogen sensitive cells (displacement of 3H-estradiol from uterus of rabbit)
Experimental: Binding function of 3-hydroxy-1,3,5(10)-estratriene-17β-[4-{p-[bis(2-chloroethyl)amino]phenyl}butyryloxy]acetate to estrogen sensitive cells.
Estradiol labelled by tritium (^3 H) was incubated with uterus of rabbit to bind it and then, the sample was added to the system to measure the amount of free ^3 H-estradiol which was replaced by the […].

[1] = tested on: human breast cancer cells having steroid hormone receptor; test: Test 2: antitumor effect, dispersion in Polysolvate 80, intraperitoneal injection; type: in vivo, human (implanted in BALB/C-nu/nu mice); conditions: Polysolvate 80 dispersion
Excerpt: (§1) Pieces of human breast cancer cells having steroid hormone receptor were subcutaneously implanted under the arm of mice (BALB/C-nu/nu) (5 week age) to form solid tumors. After the solid tumors were established, each dispersion or solution of the active ingredient in olive oil was administrated by oral dose or intraperitoneal injection each other day for 10 times or every days for 20 times. Twenty five days from the initial administration, the tumors were excised. Efficiency of inhibition of tumor proliferation was measured from (A) each average weight of excised tumors for 10 mice (the active ingredient was administrated) and (B) each average weight of excised tumors for 10 control mice. [formula]
In accordance with the test I, except administrating each active ingredient in a form of dispersion dispersed in Polysolvate 80 (emulsifier) by an intraperitoneal injection in the test of antitumor effect.

[2] = tested on: human breast cancer cells having steroid hormone receptor; test: Antitumor test (in vivo), implanted human breast cancer, drug in olive oil; design: species or system human (implanted in BALB/C-nu/nu mice); conditions: oral administration
Excerpt: as §1

[3] = tested on: human breast cancer cells having steroid hormone receptor; test: as above; design: species or system human (implanted in BALB/C-nu/nu mice)
[4] = tested on: spleen, uterus and thymus; test: Observation in autopsy; type: in vivo, mice (BALB/C-nu/nu); conditions: autopsy after administration
Excerpt: as §1

[5] = po, oral administration, Table 1, read-out: LD50 (Oral administration)
[6] = sc, subcutaneous administration, Table 1, read-out: LD50 (Subcutaneous administration)
[7] = subcutaneous administration, 5 mg/kg
[8] = subcutaneous administration, 10 mg/kg
[9] = ip, single dose in olive oil, i.p., 7 days, read-out: LD50
[10] = po, single dose in olive oil, p.o., 7 days, read-out: LD50
[11] = sc, single dose in olive oil, s.c., 7 days, read-out: LD50

With C[C@]12CC[C@@H]3c4ccc(O)cc4CC[C@H]3[C@@H]1CC[C@@H]2OC(=O)COC(=O)CCCc1ccc(N(CCCl)CCCl)cc1 [3-hydroxy-1,3,5(10)-estratriene-17β-[4-{p-[bis(2-chloroethyl)amino]phenyl}butyryloxy]acetate] the LD50 (Acute toxicity (LD50); ip) was > 1000 mg/kg, the “binding function to estrogen receptor” value (estrogen receptor) was “has the binding function to estrogen receptor” and the “free 3H-estradiol (displacement)” value (estrogen receptor; compared with estradiol) was “free ^3 H-estradiol was increased as the same with estradiol itself”. For the same compound, the “Inhibitory effect (%)” value ([1]; 0.5 mg./kg.) was 91% and the “Inhibitory effect (%)” value ([1]; 5 mg./kg.) was 97%.
With CC(=O)Oc1ccc2c(c1)CC[C@@H]1[C@@H]2CC[C@]2(C)[C@@H](OC(=O)COC(=O)CCCc3ccc(N(CCCl)CCCl)cc3)CC[C@@H]12 [Sample No. 3, 3-acetoxy-1,3,5(10)-estratriene-17β-[4-{p-[bis(2-chloroethyl)amino]phenyl}butyryloxy]acetate] the LD50 at 168 h (Acute toxicity (LD50); [5]) was > 3000 mg/kg, the LD50 at 168 h (Acute toxicity (LD50); [6]) was > 2000 mg/kg and the Efficiency of inhibition ([2]; 10 mg/kg) was 91%. For the same compound, the Survived ratio ([2]; 10 mg/kg) was 10/10, the Efficiency of inhibition ([2]; 15 mg/kg) was 93% and the Survived ratio ([2]; 15 mg/kg) was 10/10. The Efficiency of inhibition [3, 7] was 93%, the Survived ratio [3, 7] was 10/10 and the Efficiency of inhibition [3, 8] was 95%. The Survived ratio [3, 8] was 10/10.
For C[C@]12CC[C@@H]3c4ccc(OC(=O)c5ccccc5)cc4CC[C@H]3[C@@H]1CC[C@@H]2OC(=O)COC(=O)CCCc1ccc(N(CCCl)CCCl)cc1 [Sample No. 2, 3-benzoyloxy-1,3,5(10)-estratriene-17β-[4-{p-[bis(2-chloroethyl)amino]phenyl}butyryloxy]acetate], the LD50 at 168 h (Acute toxicity (LD50); [9]) was > 3000 mg/kg, the LD50 at 168 h (Acute toxicity (LD50); [5]) was > 6000 mg/kg and the LD50 at 168 h (Acute toxicity (LD50); [10]) was > 6000 mg/kg. For the same compound, the LD50 at 168 h (Acute toxicity (LD50); [11]) was > 3000 mg/kg, the LD50 at 168 h (Acute toxicity (LD50); [6]) was > 2000 mg/kg and the Efficiency of inhibition ([2]; 10 mg/kg) was 92%. For the same compound, the Survived ratio ([2]; 10 mg/kg) was 10/10, the Efficiency of inhibition ([2]; 15 mg/kg) was 98% and the Survived ratio ([2]; 15 mg/kg) was 10/10. The Efficiency of inhibition [3, 7] was 90%, the Survived ratio [3, 7] was 10/10 and the Efficiency of inhibition [3, 8] was 98%. The Survived ratio [3, 8] was 10/10.
With O=C(O)CCCc1ccc(N(CCCl)CCCl)cc1 [Sample No. 1, 4-{p-[bis(2-chloroethyl)amino]phenyl}butyric acid, reference compound] the LD50 (Acute toxicity (LD50); ip) was 20 mg/kg, the LD50 at 168 h (Acute toxicity (LD50); [9]) was 20 mg/kg and the LD50 at 168 h (Acute toxicity (LD50); [5]) was 80 mg/kg. For the same compound, the LD50 at 168 h (Acute toxicity (LD50); [10]) was 80 mg/kg, the LD50 at 168 h (Acute toxicity (LD50); [11]) was 26 mg/kg and the LD50 at 168 h (Acute toxicity (LD50); [6]) was 26 mg/kg. For the same compound, the Efficiency of inhibition ([2]; 10 mg/kg) was 55%, the Survived ratio ([2]; 10 mg/kg) was 8/10 and the Efficiency of inhibition ([2]; 15 mg/kg) was 70%. For the same compound, the Survived ratio ([2]; 15 mg/kg) was 7/10, the “changes of spleen, uterus and thymus in autopsy” value [4] was “serious changes of spleen, uterus and thymus were found” and the “Inhibitory effect (%)” value ([1]; 5 mg./kg.) was 30%. For the same compound, the Efficiency of inhibition [3, 7] was 53%, the Survived ratio [3, 7] was 9/10 and the Efficiency of inhibition [3, 8] was 71%. The Survived ratio [3, 8] was 7/10 and the Efficiency of inhibition ([3]; subcutaneous and oral administration, 15 mg./kg. (text, about)) was 50 to 70%.
In the case of CCC(=O)Oc1ccc2c(c1)CC[C@@H]1[C@@H]2CC[C@]2(C)[C@@H](OC(=O)COC(=O)CCCc3ccc(N(CCCl)CCCl)cc3)CC[C@@H]12 [Sample No. 4, 3-propionyloxy-1,3,5(10)-estratriene-17β-[4-{p-[bis(2-chloroethyl)amino]phenyl}butyryloxy]acetate], the LD50 at 168 h (Acute toxicity (LD50); [5]) is reported as > 3000 mg/kg, the LD50 at 168 h (Acute toxicity (LD50); [6]) is reported as > 2000 mg/kg and the Efficiency of inhibition ([2]; 10 mg/kg) is reported as 93%. For the same compound, the Survived ratio ([2]; 10 mg/kg) was 10/10, the Efficiency of inhibition ([2]; 15 mg/kg) was 97% and the Survived ratio ([2]; 15 mg/kg) was 10/10. For the same compound, the Efficiency of inhibition [3, 7] was 92%, the Survived ratio [3, 7] was 10/10 and the Efficiency of inhibition [3, 8] was 94%. For the same compound, the Survived ratio [3, 8] was 10/10.
